Measurements from EP0265185A2, “Cephalosporins, processes for their preparation and pharmaceutical compositions containing them” (BEECHAM GROUP PLC, priority 1986, dated 1988).
≈ marks a conversion by molar mass, not a printed value. Where a name gives a salt, the structure may show the parent alone. Read-outs that look alike come from different tables or passages of the source.

Experiments:
[1] = tested on: Pseudomonas aeruginosa 10662; assay: Minimum inhibitory concentration by serial dilution in agar; assay type: cell-based
Experimental: (§1) Minimum inhibitory Concentration (MIC) values of compounds of the invention against Enterobacter cloacae P99 and Pseudomonas aeruginosa 10662 were determined by serial dilution in agar. The plates were inoculated with 104 colony forming units and incubated overnight at 37°C. The MIC values recorded in Tables 1 and 2 were the lowest concentration of antibiotic to inhibit growth.

Enterobacter cloacae P99 = assay: as above; assay type: cell-based
Experimental: as §1

[2] = Pseudomonas aeruginosa 10662, serial dilution in agar, inoculated with 104 colony forming units, incubated overnight at 37°C, lowest concentration to inhibit growth, read-out: MIC

| SMILES | MIC [1, 2] [µg/mL] | MIC (Enterobacter cloacae P99) [µg/mL] | MIC ([1]; Pseudomonas aeruginosa, 10662) [µg/mL] |
| --- | --- | --- | --- |
| CO/N=C(\C(=O)N[C@@H]1C(=O)N2C(C(=O)O)=C(COC(C)=O)CS[C@H]12)c1csc(N)n1 [Compound A, cefotaxime, reference compound] | 16 (≈ 35.1 µM) | ≥ 128 | – |
| CCN1CCN(C(=O)N[C@@H](C(=O)N[C@]2(NC=O)C(=O)N3C(C(=O)O)=C(COC(C)=O)CS[C@@H]32)c2ccccc2)C(=O)C1=O [Compound B, 7β-[D-2-[(4-ethyl-2,3-dioxopiperazin-1-yl)carbonylamino]-2-phenylacetamido]-7α-formamidocephalosporanic acid, sodium salt, reference compound] | 16 | 16 | – |
| CCN1CCN(C(=O)N[C@@H](C(=O)N[C@]2(NC=O)C(=O)N3C(C(=O)[O-])=C(COC(=O)c4ccc(O)c(O)c4)CS[C@@H]32)c2ccccc2)C(=O)C1=O.[Na+] [Example 1, Sodium (6R,7R)-3-(3,4-Dihydroxybenzoyloxy)methyl-7-[(R)-2-(4-ethyl-2,3-dioxopiperazin-1-yl)carbonylamino-2-phenylacetamido]-7-formamidoceph-3-em-4-carboxylate] | – | 0.12 | ≤ 0.03 |
| CCN1CCN(C(=O)N[C@@H](C(=O)N[C@]2(NC=O)C(=O)N3C(C(=O)[O-])=C(CN=[N+]=[N-])CS[C@@H]32)c2ccccc2)C(=O)C1=O.[Na+] [Example 3, Sodium (6R,7R)-3-Azidomethyl-7-[(R)-2-(4-ethyl-2,3-dioxopiperazin-1-ylcarbonylamino)-2-phenylacetamido]-7-formamidoceph-3-em-4-carboxylate] | – | 4 | 4 |
| CCN1CCN(C(=O)N[C@@H](C(=O)N[C@]2(NC=O)C(=O)N3C(C(=O)[O-])=C(CNC(=O)/C=C/c4ccc(OC(C)=O)c(OC(C)=O)c4)CS[C@@H]32)c2ccccc2)C(=O)C1=O.[Na+] [Example 6, Sodium (6R,7R)-3-[(E)-3,4-Diacetoxycinnamoyl]aminomethyl-7-[(R)-2-(4-ethyl-2,3-dioxopiperazin-1-ylcarbonylamino)-2-phenylacetamido]-7-formamido-ceph-3-em-4-carboxylate] | – | 0.5 | 0.12 |
| CCN1CCN(C(=O)N[C@@H](C(=O)N[C@]2(NC=O)C(=O)N3C(C(=O)[O-])=C(CNC(=O)c4ccc(O)c(O)c4)CS[C@@H]32)c2ccccc2)C(=O)C1=O.[Na+] [Example 7, Sodium (6R,7R)-3-(3,4-Dihydroxybenzoyl)aminomethyl7-[(R)-2-(4-ethyl-2,3-dioxopiperazin-1-ylcarbonylamino) -2-phenylacetamido]-7-formamido-ceph-3-em-4-carboxylate] | – | 0.25 | ≤ 0.03 |
| CO/N=C(\C(=O)N[C@@H]1C(=O)N2C(C(=O)[O-])=C(COC(=O)c3ccc(O)c(O)c3)CS[C@H]12)c1csc(N)n1.[Na+] [Example 10, Sodium (6R,7R)-7-[2-(2-amino-4-thiazolyl)-2-((Z)-methoxyimino)acetamido]-3-(3,4-dihydroxybenzoyloxy)methylceph-3-em-4-carboxylate] | – | 4 | 0.12 |
